The record followed here is patent publication US20050137221A1, “Novel azasugar derivative and drug containing the same as the active ingredient” (priority 2002, published 2005).

As usually defined, the IC50 is the concentration that gives 50% inhibition. High values mean weaker potency in that assay, low ones greater potency in that assay.

Structures are written as SMILES.

Test system in the first assay: not listed separately
Briefly: Inhibition of TPA-stimulated release of HB-EGF-AP fusion protein from HT-1080 transfectant. It is filed as cell-based. The settings on record: Homo sapiens, 1 h, 60 nM TPA for 60 min, AP activity of culture supernatant at 405 nm. Here is the method:
Human fibrosarcoma HT-1080 transfectant expressing fusion protein of HB-EGF and human placental alkaline phosphatase (AP) were used for following tests.
The cultured transfectant was treated with Trypsin-EDTA solution, and suspended in Minimum Essential Medium without phenol red; supplemented with 10% FCS(hereinafter referred to as MEM) at the concentration of 1.0×10^5 cells/ml. Each 0.2 ml of the cell suspension was dispensed into individual wells of 96 well microplate, and incubated overnight in a CO2 incubator at 37° C. After the incubation, the culture supernatant was removed by suction and the wells were washed with 0.2 ml/well of phosphate buffered saline. The cells were pretreated with 0.1 ml/well of the test compound solution [dimethyl sulfoxide (hereinafter referred to as DMSO) solution was diluted to 100 times with MEM] for 30 min in a CO2 incubator at 37° C. Then the culture supernatant was removed by suction and cells were treated with 0.2 ml/well of TPA solution (120 μM of DMSO solution was diluted to 60 nM with MEM) containing the same concentration of the compound as pretreatment for 60 min in a CO2 incubator at 37° C. The cells pretreated with MEM and incubated with only the TPA solution containing no test compound were used as control.
After these treatments, each 0.1 ml of culture supernatant collected from each well and 0.1 ml of MEM as background were transferred to individual wells of new 96 well microplate and incubated at 65° C. for 10 min after plate sealing to inactivate endogenous AP in MEM and cells. 0.1 ml of the substrate solution (prepared by diluting an aqueous 100 mg/ml p-nitrophenyl phosphate solution prepared previously 100 times with 0.01% magnesium chloride/1 M diethanolamine before use) for AP was added to each well and incubated for 120 minutes at room temperature in the dark. The absorbance at a wavelength of 405 nm of each well was measured using a microplate reader.
The compound `COc1ccc(S(=O)(=O)N2C[C@H](O)[C@@H](O)[C@H](O)[C@@H]2C(=O)NO)cc1` [Compound a, (2R,3R,4R,5S)-3,4,5-trihydroxy-1-(4′-methoxybenzenesulfonyl)-piperidine-2-carboxylic acid hydroxamide] registered an IC50 of 0.61 µM.
Still for that read-out and setting: next, `CCOCCOc1ccc(S(=O)(=O)N2C[C@H](O)[C@@H](O)[C@H](O)[C@@H]2C(=O)NO)cc1` [Compound b, (2R,3R,4R,5S)-1-(4′-ethoxyethoxy-benzenesulfonyl)-3,4,5-trihydroxy-piperidine-2-carboxylic acid hydroxamide]: 0.45 µM.
The same measure, in the same setting: next, `O=C(NO)[C@H]1[C@@H](O)[C@H](O)[C@@H](O)CN1S(=O)(=O)c1ccc(Oc2ccccc2)cc1` [Compound c, (2R,3R,4R,5S)-3,4,5-trihydroxy-1-(4′-phenoxybenzenesulfonyl)-piperidine-2-carboxylic acid hydroxamide]: 0.35 µM; `COc1ccc(S(=O)(=O)N2C[C@H](O)[C@@H](O)[C@@H](O)[C@@H]2C(=O)NO)cc1` [Compound d, (2R,3S,4R,5S)-3,4,5-trihydroxy-1-(4′-methoxybenzenesulfonyl)-piperidine-2-carboxylic acid hydroxamide]: 1.6 µM; `O=C(NO)[C@H]1[C@@H](O)[C@H](O)[C@H](O)CN1S(=O)(=O)c1ccc(Oc2ccccc2)cc1` [Compound e, (2R,3R,4R,5R)-3,4,5-trihydroxy-1-(4′-phenoxybenzenesulfonyl)-piperidine-2-carboxylic acid hydroxamide]: 0.34 µM.

For the next assay, the system named is epidermal hyperplasia in male BALB/c mice. Put plainly: TPA-induced epidermal hyperplasia on mouse dorsal skin (epidermal thickness). It counts as in vivo. The settings on record: topical application in acetone 5 minutes, 24 hours and 48 hours after TPA; skin excised at 72 hours; FIG. 1. Here is the method: After backs of male BALB/c mice were shaved, 10 μL of a TPA-acetone solution (0.1 mM) was applied to the dorsal skin surface in an area of about 1 cm^2. In the medicine-treated group, a volume of 20 μL of a solution prepared by dissolving the test compound in acetone was applied to the same area 5 minutes, 24 hours and 48 hours after TPA application. In the non-treated group, only TPA was applied. In the control group, acetone was applied instead of the TPA-acetone solution.
The mice were sacrificed and the skin tissues were excised 72 hours after TPA application. Then the tissues were fixed with formalin, the vertical sections including the center of the TPA- or acetone-treated area were prepared and embedded in paraffin according to the conventional method. And they were stained by hematoxylin-eosin after removing paraffin. The epidermal thickness was measured using a microscope.
In FIG. 1, the numeral in the ordinate represents the epidermal thickness (μm). A bar graph of TPA (-) represents the epidermal thickness of the control group and a bar graph of TPA represents the epidermal thickness of the non-treated group. The respective bar graphs of 1, 10 and 100 denote the epidermal thickness of the group wherein the test compound is administered at a dose of 1, 10 and 100 (μg/wound) of each test compound. […]
Turning to `O=C(NO)[C@H]1[C@@H](O)[C@H](O)[C@@H](O)CN1S(=O)(=O)c1ccc(Oc2ccccc2)cc1` [Compound c, (2R,3R,4R,5S)-3,4,5-trihydroxy-1-(4′-phenoxybenzenesulfonyl)-piperidine-2-carboxylic acid hydroxamide], the “hyperplasia inhibitory activity (epidermal thickness)” value is “hyperplasia inhibitory activity”.
